# In patent publication US5288720A, “Angiotensin II receptor blocking 2,3,6 substituted quinazolinones” (American Cyanamid Company, priority 1993, dated 1994):
# System: ANGIOTENSIN II VASOPRESSOR RESPONSE
# Experiment: AII Challenge: blockade of angiotensin II vasopressor response in conscious SHR
# Format: in vivo, rat (Conscious Male Okamoto-Aoki SHR)
# Details: SHR n=2
# Outline: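 Percent blockade is derived from the systolic pressure rise in mmHg, taking each rat's own predose response as 100%. Rats were conscious male Okamoto-Aoki SHR, 16-20 weeks, ~330 g, with aortic and caval cannulas under local procaine. Compound went i.v., i.p. or orally, then angiotensin II challenges (0.05 and 0.1 ug/kg i.v.) at 30-300 min.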
# [1] = 3 mg/kg p.o., AII 0.05 mcg/kg IV, 30 min post dose
# [2] = 3 mg/kg p.o., AII 0.05 mcg/kg IV, 60 min post dose
# [3] = 3 mg/kg p.o., AII 0.05 mcg/kg IV, 90 min post dose
# [4] = 3 mg/kg p.o., AII 0.05 mcg/kg IV, 120 min post dose
# [5] = 3 mg/kg p.o., AII 0.05 mcg/kg IV, 180 min post dose
# [6] = 3 mg/kg p.o., AII 0.05 mcg/kg IV, 240 min post dose
# [7] = 3 mg/kg p.o., AII 0.1 mcg/kg IV, 30 min post dose
# [8] = 3 mg/kg p.o., AII 0.1 mcg/kg IV, 60 min post dose
# [9] = 3 mg/kg p.o., AII 0.1 mcg/kg IV, 90 min post dose
# [10] = 3 mg/kg p.o., AII 0.1 mcg/kg IV, 120 min post dose
# [11] = 3 mg/kg p.o., AII 0.1 mcg/kg IV, 180 min post dose
# [12] = 3 mg/kg p.o., AII 0.1 mcg/kg IV, 240 min post dose
# [13] = 10 mg/kg p.o., AII 0.05 mcg/kg IV, 30 min post dose
# [14] = 10 mg/kg p.o., AII 0.05 mcg/kg IV, 60 min post dose
# [15] = 10 mg/kg p.o., AII 0.05 mcg/kg IV, 90 min post dose
# [16] = 10 mg/kg p.o., AII 0.05 mcg/kg IV, 120 min post dose
# [17] = 10 mg/kg p.o., AII 0.05 mcg/kg IV, 180 min post dose
# [18] = 10 mg/kg p.o., AII 0.05 mcg/kg IV, 240 min post dose
# [19] = 10 mg/kg p.o., AII 0.05 mcg/kg IV, 300 min post dose
# [20] = 10 mg/kg p.o., AII 0.1 mcg/kg IV, 30 min post dose
# [21] = 10 mg/kg p.o., AII 0.1 mcg/kg IV, 60 min post dose
# [22] = 10 mg/kg p.o., AII 0.1 mcg/kg IV, 90 min post dose
# [23] = 10 mg/kg p.o., AII 0.1 mcg/kg IV, 120 min post dose
# [24] = 10 mg/kg p.o., AII 0.1 mcg/kg IV, 180 min post dose
# [25] = 10 mg/kg p.o., AII 0.1 mcg/kg IV, 240 min post dose
# [26] = 10 mg/kg p.o., AII 0.1 mcg/kg IV, 300 min post dose
structure (smiles),measurement,setting,value
"CCCCc1nc2ccc(C(O)C3CCCN(C)C3=O)cc2c(=O)n1Cc1ccc(-c2ccccc2-c2nn[nH]n2)cc1 (single isomer, unassigned; isomer 2) [Example 38, 2-Butyl-6-hydroxy(1-methyl-2-oxo-3-piperidinyl)methyl-3-[[2'-(1H-tetrazol-5-yl)[1,1'-biphenyl]-4-yl]methyl-4(3H)-quinazolinone isomer 2]",% Inhibition of AII vasopressor response,[1],70%
same,Average Change (systolic blood pressure response to AII),[1],7.5 mmHg
same,% Inhibition of AII vasopressor response,[2],50%
same,Average Change (systolic blood pressure response to AII),[2],12.5 mmHg
same,% Inhibition of AII vasopressor response,[3],46%
same,Average Change (systolic blood pressure response to AII),[3],13.5 mmHg
same,% Inhibition of AII vasopressor response,[4],70%
same,Average Change (systolic blood pressure response to AII),[4],7.5 mmHg
same,% Inhibition of AII vasopressor response,[5],70%
same,Average Change (systolic blood pressure response to AII),[5],7.5 mmHg
same,% Inhibition of AII vasopressor response,[6],40%
same,Average Change (systolic blood pressure response to AII),[6],15 mmHg
same,% Inhibition of AII vasopressor response,[7],57%
same,Average Change (systolic blood pressure response to AII),[7],15 mmHg
same,% Inhibition of AII vasopressor response,[8],20%
same,Average Change (systolic blood pressure response to AII),[8],27.5 mmHg
same,% Inhibition of AII vasopressor response,[9],32%
same,Average Change (systolic blood pressure response to AII),[9],23.5 mmHg
same,% Inhibition of AII vasopressor response,[10],52%
same,Average Change (systolic blood pressure response to AII),[10],16.5 mmHg
same,% Inhibition of AII vasopressor response,[11],28%
same,Average Change (systolic blood pressure response to AII),[11],25 mmHg
same,% Inhibition of AII vasopressor response,[12],16%
same,Average Change (systolic blood pressure response to AII),[12],29 mmHg
same,% Inhibition of AII vasopressor response,[13],50%
same,Average Change (systolic blood pressure response to AII),[13],25 mmHg
same,% Inhibition of AII vasopressor response,[14],40%
same,Average Change (systolic blood pressure response to AII),[14],30 mmHg
same,% Inhibition of AII vasopressor response,[15],25%
same,Average Change (systolic blood pressure response to AII),[15],37.5 mmHg
same,% Inhibition of AII vasopressor response,[16],50%
same,Average Change (systolic blood pressure response to AII),[16],25 mmHg
same,% Inhibition of AII vasopressor response,[17],5%
same,Average Change (systolic blood pressure response to AII),[17],47.5 mmHg
same,% Inhibition of AII vasopressor response,[18],-5%
same,Average Change (systolic blood pressure response to AII),[18],52.5 mmHg
same,% Inhibition of AII vasopressor response,[19],0%
same,Average Change (systolic blood pressure response to AII),[19],50 mmHg
same,% Inhibition of AII vasopressor response,[20],35%
same,Average Change (systolic blood pressure response to AII),[20],37.5 mmHg
same,% Inhibition of AII vasopressor response,[21],39%
same,Average Change (systolic blood pressure response to AII),[21],35 mmHg
same,% Inhibition of AII vasopressor response,[22],35%
same,Average Change (systolic blood pressure response to AII),[22],37.5 mmHg
same,% Inhibition of AII vasopressor response,[23],43%
same,Average Change (systolic blood pressure response to AII),[23],32.5 mmHg
same,% Inhibition of AII vasopressor response,[24],13%
same,Average Change (systolic blood pressure response to AII),[24],50 mmHg
same,% Inhibition of AII vasopressor response,[25],22%
same,Average Change (systolic blood pressure response to AII),[25],45 mmHg
same,% Inhibition of AII vasopressor response,[26],4%
same,Average Change (systolic blood pressure response to AII),[26],55 mmHg
